Where a name gives a salt, the structure may show the parent alone.
What was measured:
[1] = target: T1, NDM-1 (Klebsiella pneumoniae, UniProt C7C422); assay: Dose rate inhibition studies for IC50 determination, NDM-1 enzymatic assay; format: biochemical; conditions: Enzyme IC50 NDM-1, 10 nM NDM-1, 100 μM ZnCl2, imipenem substrate, inhibitor 0-800 μM, 3 parallel measurements; N.I. = no enzyme inhibitory activity observed
T1 construct: made in house
Procedure: (§1) The […] synthesized compounds 5a–l were tested for their inhibitory activities against NDM-1, VIM-2 (Table 1), and GIM-1 in an in vitro enzymatic assay (ESI ^†).[41] The inhibitory activity was measured using enzyme concentrations of 0.1 nM VIM-2, 10 nM NDM-1 or 1 nM GIM-1, with an excess Zn(II) (100 μM, see Experimental methods), with inhibitor compounds with concentrations from 0 to 800 μM. Each data point was measured in triplicates. […] This is in line with previous reports.[42,43]
(§2) A 100 μl solution with buffer (50 mM HEPES (pH 7.2), 100 μM ZnCl2, 2.5% DMSO), purified enzyme (0.1 nM VIM-2, 10 nM NDM-1 or 1 nM GIM-1) and 800–0 μM inhibitor was incubated in a 96 well plate at 25 °C for 5 min. In addition, the enzyme buffer contained 400 μg ml^−1 bovine serum albumin (BSA) to prevent protein unfolding and loss of activity due to low concentrations.[67,68] 100 μM of the reporter substrate nitrocefin (VIM-2, GIM-1) or imipenem (NDM-1) was added to the enzyme–inhibitor solution and the increase in absorbance at 482 nm (nitrocefin) or 300 nm (imipenem) was recorded on a Spectramax M4 spectrophotometer (Molecular Devices). Each data point was performed in triplicates and the initial velocity for each inhibitor concentration was analyzed by a log [inhibitor] vs. response curve fitting to calculate IC50 in GraphPad Prism 9.2 software.

[2] = target: T2, VIM-2 (Escherichia coli, UniProt Q5U7L7); assay: Dose rate inhibition studies for IC50 determination, VIM-2 enzymatic assay; format: biochemical; conditions: Enzyme IC50 VIM-2, 0.1 nM VIM-2, 100 μM ZnCl2, nitrocefin substrate, inhibitor 0-800 μM, 3 parallel measurements; N.I. = no enzyme inhibitory activity observed
T2 construct: made in house
Procedure: as §1, §2

[3] = target: T3, 15N-labelled NDM-1 (Klebsiella pneumoniae, UniProt C7C422); assay: 1H,15N HSQC NMR chemical shift perturbation titration, NDM-1; format: binding
T3 construct: made in house
T3 sequence (C7C422 29-270 limits assumed): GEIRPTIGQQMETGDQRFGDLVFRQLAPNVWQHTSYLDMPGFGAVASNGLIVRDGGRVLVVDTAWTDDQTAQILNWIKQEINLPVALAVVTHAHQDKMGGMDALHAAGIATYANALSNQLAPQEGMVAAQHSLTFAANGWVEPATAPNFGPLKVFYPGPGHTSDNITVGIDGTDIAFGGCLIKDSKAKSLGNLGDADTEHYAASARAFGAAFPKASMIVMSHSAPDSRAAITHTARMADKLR
Procedure: (§3) Solution NMR spectroscopy is a powerful tool to assess protein–ligand interactions under close to physiological conditions.[47] We, therefore, performed NMR chemical shift perturbation (CSP, for details, see section S8, ESI ^†) experiments to identify the amino acid residues of NDM-1 and VIM-2 that are involved in inhibitor binding, making use of the previously published protein assignments.[48,49] Titrations were conducted using ^15N-labelled proteins with 0, 0.5, 1, 2, 4, 8, and 16 equiv. of 5 inhibitors for NDM-1 and of 7 inhibitors for VIM-2.
(§4) For the titrations, ^15N-labelled NDM-1 and ^15N-labelled VIM-2 (250 μM), and titrated ligands (0.5 equiv. in 1 μL) were prepared in the same buffer as the protein (20 mM KPO4, 0.1 mM ZnCl2, pH 7.0 with 10% D2O and 2.5% DMSO-d6). ^1H,^15N HSQC spectra were acquired with 128 × 1024 complex points (F1 × F2) and spectral width of 9090 × 2740 Hz on ^15N-labeled NDM-1/VIM-2 and with every titration step up to 1 : 16 ratio between protein : ligand (0, 0.5, 1, 2, 4, 8, and 16 equiv. of ligand). All experiments were recorded on a Bruker 600 MHz spectrometer at 310 K equipped with a 5 mm TCI cryogenic probe. The NMR data were processed on the MestReNova software with the Mnova Binding plugin. The weighted average chemical shift perturbations (CSP) for the backbone amides were calculated from the observed chemical shift differences in the proton and nitrogen dimensions using the equation (chemical shift scaling factors: FH = 1, FN = 0.156) CSP = Δδ1H,15N = [drawing 13] .
(§5) 7. Chemical shift perturbation histograms
(§6) Chemical shift perturbation was calculated according equation (1) 2
(§7) CSP = Δδ(1H,15N) = √(Δδ1H2 + (1⁄R × Δδ15N2) Rscale = 6.5 (1)
(§8) Where Δδ1H is the chemical shift change for proton dimension, Δδ15N is the chemical shift change for nitrogen dimension, Rscale is a
(§9) The chemical shift perturbations (CSP) were classified as significant (SSP) when the observed Δδ(1H,15N) was greater than the population
(§10) mean plus the standard deviation (µ+1σ) – solid line; (µ+2σ) – dashed line, and (µ+3σ) – dashed line.
(§11) Further on, Kd was calculated according: 3
(§12) ([P]+[L]+Kd)− √([P]+[L]+Kd)2−4[P][L]
(§13) ΔδmaxΔδobs = Δδmax 2[P] (2)
(§14) Where Kd is the dissociation constant, [P] and [L] are protein and ligand concentrations, respectively. Δδmax were estimated in
(§15) MestReNova by extrapolation of the obser ved chemical shift differences Δδobs.

[4] = target: T4, 15N-labelled VIM-2 (Escherichia coli, UniProt Q5U7L7); assay: 1H,15N HSQC NMR chemical shift perturbation titration, VIM-2; format: binding; conditions: VIM-2 Kd, 0-16 equiv. ligand, pH 7.0, 310 K
T4 construct: made in house
Procedure: as §3, §4, §5, §6, §7, §8, §9, §10, §11, §12, §13, §14, §15

[5] = Estimated binding constant (Kd), residue 070F, Table S5, per-residue fit, NDM-1 070F
[6] = Estimated binding constant (Kd), residue 091T, Table S5, per-residue fit, NDM-1 091T
[7] = Estimated binding constant (Kd), residue 108E, Table S5, per-residue fit, NDM-1 108E
[8] = Estimated binding constant (Kd), residue 119T, Table S5, per-residue fit, NDM-1 119T
[9] = Estimated binding constant (Kd), residue 124D, Table S5, per-residue fit, NDM-1 124D
[10] = Estimated binding constant (Kd), residue 127G, Table S5, per-residue fit, NDM-1 127G
[11] = Estimated binding constant (Kd), residue 149A, Table S5, per-residue fit, NDM-1 149A
[12] = Estimated binding constant (Kd), residue 152E, Table S5, per-residue fit, NDM-1 152E
[13] = Estimated binding constant (Kd), residue 159H, Table S5, per-residue fit, NDM-1 159H
[14] = Estimated binding constant (Kd), residue 160S, Table S5, per-residue fit, NDM-1 160S
[15] = Estimated binding constant (Kd), residue 188G, Table S5, per-residue fit, NDM-1 188G
[16] = Estimated binding constant (Kd), residue 194I, Table S5, per-residue fit, NDM-1 194I
[17] = Estimated binding constant (Kd), residue 197G, Table S5, per-residue fit, NDM-1 197G
[18] = Estimated binding constant (Kd), residue 205F, Table S5, per-residue fit, NDM-1 205F
[19] = Estimated binding constant (Kd), residue 214K, Table S5, per-residue fit, NDM-1 214K
[20] = Estimated binding constant (Kd), residue 217S, Table S5, per-residue fit, NDM-1 217S
[21] = Estimated binding constant (Kd), residue 228H, Table S5, per-residue fit, NDM-1 228H
[22] = Estimated binding constant (Kd), residue 229Y, Table S5, per-residue fit, NDM-1 229Y
[23] = Estimated binding constant (Kd), residue 230A, Table S5, per-residue fit, NDM-1 230A
[24] = Estimated binding constant (Kd), residue 232S, Table S5, per-residue fit, NDM-1 232S
[25] = Estimated binding constant (Kd), residue 248M, Table S5, per-residue fit, NDM-1 248M
[26] = Estimated binding constant (Kd), residue 251S, Table S5, per-residue fit, NDM-1 251S
[27] = Estimated binding constant (Kd), residue 254D, Table S5, per-residue fit, NDM-1 254D
[28] = Estimated binding constant (Kd), residue 255S, Table S5, per-residue fit, NDM-1 255S
[29] = NDM-1 Kd, NMR chemical shift perturbation, 0-16 equiv. ligand, pH 7.0, 310 K

T1 sequence (C7C422 29-270 limits assumed): as above

O=C(Cc1ccsc1)NC(C1CCCCN1)P(=O)(O)O (centres unmarked) [Compound 5j-1, (Piperidin-2-yl(2-(thiophen-3-yl)acetamido)methyl)phos-phonic acid hydrochloride]
IC50 [1]: 506 ± 333 µM | IC50 [2]: 319 ± 69 µM | Kd [3, 5]: 2.54 mM | Kd [3, 6]: 2.11 mM | Kd [3, 7]: 3.54 mM | Kd [3, 8]: 7.97 mM | Kd [3, 9]: 12.4 mM | Kd [3, 10]: 12.4 mM | Kd ([3]; Estimated binding constant (Kd), residue 133H_225D, Table S5, per-residue fit, NDM-1 133H_225D): 1.42 mM | Kd [3, 11]: 3.18 mM | Kd [3, 12]: 32.9 mM | Kd [3, 13]: 8.39 mM | Kd [3, 14]: 15.7 mM | Kd [3, 15]: 6.63 mM | Kd [3, 16]: 6.1 mM | Kd [3, 17]: 3.05 mM | Kd [3, 18]: 8.41 mM | Kd ([3]; Estimated binding constant (Kd), residue 206G, Table S5, per-residue fit, NDM-1 206G): 7.72 mM | Kd [3, 19]: 1.96 mM | Kd [3, 20]: 8.15 mM | Kd [3, 21]: 4.94 mM | Kd [3, 22]: 1.31 mM | Kd [3, 23]: 8.81 mM | Kd [3, 24]: 21.3 mM | Kd [3, 25]: 8.64 mM | Kd ([3]; Estimated binding constant (Kd), residue 249S, Table S5, per-residue fit, NDM-1 249S): 34 mM | Kd [3, 26]: 12.3 mM | Kd [3, 27]: 9.29 mM | Kd [3, 28]: 18.6 mM | Kd [3, 29]: 2.2 ± 0.2 mM | Kd [4]: 900 ± 100 µM

O=C(NC(C1CCCCN1)P(=O)(O)O)c1cccs1 (centres unmarked) [Compound 5b-1, (Piperidin-2-yl(thiophene-2-carboxamido)methyl)phos-phonic acid hydrochloride]
IC50 [1]: 230 ± 28 µM | IC50 [2]: 118 ± 60 µM | Kd [3, 5]: 2.92 mM | Kd [3, 6]: 5.76 mM | Kd [3, 7]: 6.63 mM | Kd [3, 8]: 18.1 mM | Kd [3, 9]: 3.17 mM | Kd [3, 10]: 8.34 mM | Kd [3, 11]: 1.71 mM | Kd [3, 12]: 3.52 mM | Kd [3, 13]: 21.5 mM | Kd [3, 14]: 8.97 mM | Kd [3, 15]: 3.4 mM | Kd ([3]; Estimated binding constant (Kd), residue 191S, Table S5, per-residue fit, NDM-1 191S): 0.85 mM | Kd [3, 16]: 2.93 mM | Kd [3, 17]: 10.4 mM | Kd [3, 18]: 11 mM | Kd ([3]; Estimated binding constant (Kd), residue 211K, Table S5, per-residue fit, NDM-1 211K): 3.49 mM | Kd [3, 19]: 1.36 mM | Kd [3, 20]: 10.5 mM | Kd [3, 21]: 11 mM | Kd [3, 22]: 2.24 mM | Kd [3, 23]: 4.33 mM | Kd [3, 24]: 12.1 mM | Kd [3, 25]: 12.9 mM | Kd [3, 26]: 6.07 mM | Kd ([3]; Estimated binding constant (Kd), residue 252A, Table S5, per-residue fit, NDM-1 252A): 3.48 mM | Kd [3, 27]: 9.74 mM | Kd [3, 28]: 7.37 mM | Kd [3, 29]: 2 ± 0.1 mM | Kd [4]: 400 ± 40 µM
